Tested on: mouse macrophage RAW264.7 cells
Test: Western blotting of proteins related to proliferation
Assay type: cell-based
Conditions: DHMBA 10 μM, 3 days
Procedure: RAW264.7 cells (1×10^6 cells/10 ml of medium in 100 mm dish) were cultured for 3 days in a DMEM culture medium containing 10% FBS, 1% P/S, and 1% fungizone in the control group (1% ethanol; 0 μM DHMBA as final concentration) and the DHMBA treated group (10 μM). After the culture, cells were removed from the dish using a cell scraper in a cell lysis buffer containing protease inhibitors. Forty micrograms of supernatant protein per lane were separated by electrophoresis on a 12% SDS-PAGE gel, transferred onto a […], and probed by Western blotting with antibodies against various proteins. […] In FIG. 3(B), band intensities are shown as fold increase over the control. Data are presented as the mean±SD of values obtained from 4 dishes using different cell preparations. *: Significant difference (p<0.001) between the control group and the DHMBA-treated group. Statistical analysis was performed using 1-way ANOVA with Tukey-Kramer post-test.
RAW264.7 cells (1×10^6 cells/10 ml of 100 mm dish) were cultured for 3 days in 10% FBS, 1% P/S (1% ethanol), or in the DHMBA-treated group (10 μM). After the culture, the dishes were washed with cold PBS (10 ml) to remove floating and dead cells. The cell lysis buffer (Cell Signaling Technology, Inc., Danvers, MA, USA) supplemented with protease/protein phosphatase inhibitor (Roche Diagnostics, Indianapolis, IN, USA) was added to the cells to collect cell lysates of the adherent cells as described in the previous study. The cell lysates were centrifuged at 17,000×g, 4° C. for 10 min. Protein concentrations in the supernatants were measured using Bio-Rad Protein Assay Dye (Bio-Rad Laboratories, Inc., Hercules, CA, USA) with bovine serum albumin as a standard. The cell lysates were stored at −80° C. until use. The supernatant proteins (40 μg/lane) were separated by SDS-polyacrylamide gel electrophoresis (12% SDS-PAGE) and transferred to a PVDF membrane. The transferred membranes were immunoblotted with specific antibodies against various proteins, including Ras (cat. no. 3339, rabbit), Akt (cat. no. 9272, rabbit), mitogen-activated protein kinase (MAPK; cat. no. 4695, rabbit), phosphorylated MAPK (cat. no. 4370, rabbit), mechanistic target of rapamycin (mTOR; cat. no. 4517, mouse), Rb (cat. no. 9309, mouse), p21 (cat. no. 2947, rabbit), STAT3 (cat. no. 12640, rabbit), COX-1 (cat. no. 48415), COX-2 (cat. no. 4842), and β-actin (cat. no. 3700, mouse), all of which were purchased from Cell Signaling Technology, Inc. (Danvers, MA, USA). Specific antibodies for p53 (cat. no. sc-126, mouse) and NF-κB p65 (cat. no. sc-109, rabbit) were purchased from Santa Cruz Biotechnology Inc. (Santa Cruz, CA, USA). Additionally, rabbit anti-regucalcin antibody (cat. no. HPA029103, rabbit) was obtained from Sigma-Aldrich. Target proteins were incubated overnight at 4° C. with one of the above primary antibodies (1:1,000). After incubation, the membranes were further incubated with horseradish peroxidase-conjugated secondary antibodies (Santa Cruz Biotechnology Inc., cat. no. sc-2005 (mouse) or sc-2305 (rabbit); dilution 1:2000) for 60 min at room temperature, and protein bands were detected using chemiluminescence substrates (cat. no. 34577, Thermo Fisher Scientific Inc., Rockford, IL, USA) on X-ray films. From 4 independent experiments, a total of 3 or 4 films with separate membranes were scanned with Epson Perfection 1660 Photo scanner to quantify the bands using Image J2 software (National Institutes of Health, Bethesda, MD, USA). In addition, for immunoblotting using additional antibodies, the membranes were incubated at room temperature for 30 min with Restore (registered trademark) Western Blot Stripping Buffer (cat. no. 21059; Thermo Fisher Scientific Inc., Rockford, IL, USA) to remove attached chemiluminescence substrates (Thermo Fisher Scientific Inc.,) and were used to measure other protein molecules.

COc1c(O)cc(CO)cc1O [DHMBA, 3,5-dihydroxy-4-methoxybenzyl alcohol]
decreased: level of Akt | level of MAPK | level of PI3 kinase | level of Ras | level of mTOR | level of phospho-MAPK
increased: expression level of Rb | expression level of p21 | expression level of p53 | expression level of regucalcin

— US20260041649A1, “ANTI-INFLAMMATORY AGENT” (WATANABE OYSTER LABORATORY, CO., LTD., priority 2023, published 2026)
